Here are results for three compounds from publication PMC8047011, “Enantiomers of 2-methylglutamate and 2-methylglutamine selectively impact mouse brain metabolism and behavior” (Scientific Reports, 2021).

Series [1] relates to C57Bl/6 mice. The series is described as follows: Activity chamber open field. It counts as in vivo, mouse. The conditions noted are these: for Distance moved in the activity chamber vs vehicle: n = 6; for Distance moved in the activity chamber: chronic 10 mg/kg/day IP, after one week. An excerpt:
(§1) See Supplementary Methods for details. […]
Activity Chamber Open Field: Assessment was made in an Open Field Activity Arena (Med Associates Inc., St. Albans, VT. Model ENV-515) mounted with three planes of infrared detectors within a specially designed sound-attenuating chamber (Med Associates Inc., St.
Albans, VT. MED-017M-027). The arena was 43 cm (L) x 43 cm (W) x 30 cm (H) and the […]
in the periphery and center of the Arena. […]
without bedding, and in a sound isolating chamber. The activity chamber measures distance moved using infrared beams and without video recordings. […]
were used in the study. The animals were housed as described above.
The first dose was administered […]
described above for 30 min.

Series [2] concerns C57Bl/6 mice. The series is described as follows: Chronic low dose exposure, mortality and body weight. To be noted: 10 mg/kg/day IP for a month. As to the method:
Behavioral tests were performed on 2 month-old, male, C57Bl/6 mice. We selected male mice because SBFNL historical controls are male mice. First, we assessed safety and tolerability of acute exposure to our novel chemicals through the following sequence of tests immediately following IP injection: maximum tolerated dose with novel cage observation at 100, 300, or 900 mg/kg, and then SHIRPA, activity chamber, and then hot plate latency using 100 or 30 mg/kg IP in different drug naïve mice. […] Animals were dosed daily from 3 to 5 PM after the conclusion of each behavioral testing session. […] See Supplementary Methods for details. […]
sound-attenuating chamber was 74 cm (L) x 60 cm (W) x 60 cm (H). The mice were placed in the corner of the testing arena and allowed to explore the arena for 60 min while being tracked automatically. Parameters measured include distance moved, velocity, rearing, and times spent in the periphery and center of the Arena. Periphery was defined as the zone 5 cm away from the arena wall. The Arena was cleaned with a 1% Virkon solution at the end of the trial.
The novel cage observation (vide supra) and activity chamber open field assessment are not […]
outcome. The novel cage protocol is conducted on the benchtop in a lighted room using a clean home cage, and tests habituation using video recording and scoring of behavioral performance.
Moreover, the novel cage allows the tester to visualize any other side effects such as seizure or repetitive jumping. The activity chamber is in an enclosed box, and the test is done in the dark, without bedding, and in a sound isolating chamber. The activity chamber measures distance moved using infrared beams and without video recordings.
In vivo animal studies; Chronic Efficacy Study using C57Bl/6J mice
Animal: Two month-old, naïve male C57Bl/6 mice from Jackson Laboratory (Stock ID# 000664) were used in the study. The animals were housed as described above.
Dosing: (R)-2MeGlu (10 mg/kg), (S)-2MeGlu (10 mg/kg), rac-2MeGln (10 mg/kg), and vehicle (PBS) were administered IP at 10 ml/kg dosing volume daily. […]

Series [3] has as its system C57Bl/6 mice. The experiment in a line: Elevated plus maze. Type of series: in vivo, mouse. The conditions noted are these: chronic 10 mg/kg/day IP, week 1 of testing. From the text: See Supplementary Methods for details.
Elevated Plus Maze: The maze was made of acrylonitrile butadiene styrene (ABS) plastic and had two open arms and two close arms that were 30 cm long and 5 cm wide. The center area where the open and close arms meet was 5 cm x 5 cm. The open arms had 2 mm lips at the edges, and the closed arms had 15 cm opaque walls. The maze was elevated 50 cm and surrounded by privacy blinds during the test. The maze was illuminated to 7 lux using red light throughout the test. Each mouse was released in the center of the maze and given 5 min to explore the maze. Duration and frequency in each zone of the maze were recorded using Ethovision (Noldus Information Technology, Wageningen, the Netherlands) tracking software. […]

Series [4] relates to C57Bl/6 mice. The experiment in a line: Fear conditioning. It counts as in vivo, mouse. To be noted: chronic 10 mg/kg/day IP, week 4 of testing.
Excerpt: as §1
Fear Conditioning: Coulbourn Instruments (Holliston, MA, USA) fear conditioning system and FreezeFrame software were used for analysis. The experiment consisted of 1 day of training, 1 day of contextual testing, and 1 day of cued testing. The training and contextual testing chambers were identical with similar context. The walls were made of aluminum. The floor was […]
a gray metal grid through which the US was delivered, and the chambers used yellow color house light and were scented with mint extract to produce a unique smell in the chambers. The chambers were cleaned with a 10% simple green solution (Sunshine Makers, Inc.) between each mouse. The cued testing chambers were circular-shaped, made of plastic, used blue color house light, and were scented with vanilla extract to create a unique context different from training and contextual testing. This chamber was cleaned with 70% ethanol between each mouse. Both chambers were mounted within specially designed sound-attenuating chambers.
Each chamber had speakers mounted on the wall and included an exhaust fan and camera. On Day 1 training, mice were placed individually into a training chamber for 200 seconds. A tone (20 seconds, 80 dB, 2 kHz) was presented to the mouse, followed by an electrical shock (intensity 0.5 mA, 2 seconds) 18 seconds after the end of the tone (Misane et al. 2005, Burman 2014, Lugo et al. 2014). This procedure was repeated two times with a 60 second interval from the end of the shock to the next tone. The mouse was removed from the chamber and returned to the home cage 60 seconds after the last shock. On Day 2, the mice were placed back into the training chamber without any tone or shock for contextual memory testing for 15 minutes. On Day 3, the mice were placed into the cued testing chamber with just tones (20 seconds, 80dB, 2 kHz) presented 3 times with 80 second intervals after 200 seconds of habituation. Overall, the mice received the tone and shock pairings only on the training day. An overhead camera was used to record mice freezing behavior. The fear conditioning test was conducted after four weeks of exposure to compounds or vehicle.
We have shown when studying the cognitive enhancement in normal, young control mice, overtraining of the animals will lead to saturation of behavioral learning, making it very difficult to display pharmacological improvements in behavioral paradigms. We therefore chose less training trials per day and less number of training days in the Morris water maze to increase the likelihood of observing drug effects. Likewise, the fear conditioning task, we chose lower shock

`C[C@](N)(CCC(=O)O)C(=O)O` [(S)-2MeGlu, (S)-2-methylglutamic acid]: the “Distance moved in the activity chamber vs vehicle” value (“Distance moved … vs vehicle” for short) in the series on C57Bl/6 mice [1] (acute 30 mg/kg IP) is “not significantly different”. Further, the “Distance moved … vs vehicle” value in the series with C57Bl/6 mice [1] (acute 100 mg/kg IP) was “significantly reduced”. The “Distance moved in the activity chamber” value in the series with C57Bl/6 mice [1] is given as “no significant effect of treatment”. Also, the “Body weight over the month” value in the series on C57Bl/6 mice [2] is reported as “no significant effect of treatment”. Further, the “Time spent in the open arms in the elevated plus maze” value (shortened to “Time spent in the open arms”) in the series with C57Bl/6 mice [3] is on record as “no significant effect of treatment”. For the same compound, in the series with C57Bl/6 mice [4], the “Fear conditioning Day 1, learning of the tone-shock association” value (“Fear conditioning Day 1, learning” for short) is listed as “equivalent learning of the tone-shock association”; the “Fear conditioning Day 2, contextual recall vs vehicle” value is “no significant effect of treatments”; the “Fear conditioning Day 3, freezing during cued recall or tone presentation vs vehicle” value was “no significant differences detected”.

In the case of `CC(N)(CCC(N)=O)C(=O)O` (racemic) [rac-2MeGln, rac-2-methylglutamine], the “Distance moved … vs vehicle” value with C57Bl/6 mice [1] (acute 30 mg/kg IP) is reported as “modest but significant reduction in distance moved only at 11 min post injection”. In addition, the “Distance moved … vs vehicle” value in the series with C57Bl/6 mice [1] (acute 100 mg/kg IP) is given as “not significantly different from vehicle at any time point”. For the same compound, the “Distance moved in the activity chamber” value with C57Bl/6 mice [1] is given as “no significant effect of treatment”. The “Body weight over the month” value in the series on C57Bl/6 mice [2] is “no significant effect of treatment”. In the series on C57Bl/6 mice [3], the “Time spent in the open arms” value was “no significant effect of treatment”. In the series with C57Bl/6 mice [4], the “Fear conditioning Day 1, learning” value was “equivalent learning of the tone-shock association”; the “Fear conditioning Day 2, contextual recall vs vehicle” value is given as “no significant effect of treatments”; the “Fear conditioning Day 3, freezing during cued recall or tone presentation vs vehicle” value is recorded as “no significant differences detected”.

Turning to `C[C@@](N)(CCC(=O)O)C(=O)O` [(R)-2MeGlu, (R)-2-methylglutamic acid], the “Distance moved … vs vehicle” value in the series with C57Bl/6 mice [1] (acute 30 mg/kg IP) is recorded as “modest but significant reduction in distance moved only at 11 min post injection”. For the same compound, in the series with C57Bl/6 mice [1] (acute 100 mg/kg IP), the “Distance moved … vs vehicle” value is given as “significantly reduced”. For the same compound, in the series with C57Bl/6 mice [1], the “Distance moved in the activity chamber” value is “no significant effect of treatment”. For the same compound, in the series with C57Bl/6 mice [2], the “Body weight over the month” value is recorded as “no significant effect of treatment”. Also, the “Time spent in the open arms” value in the series with C57Bl/6 mice [3] is recorded as “no significant effect of treatment”. In the series on C57Bl/6 mice [4], the “Fear conditioning Day 1, learning” value is “equivalent learning of the tone-shock association”; the “Fear conditioning Day 2, contextual recall vs vehicle” value is “no significant effect of treatments”; the “Fear conditioning Day 3, freezing during cued recall or tone presentation vs vehicle” value was “no significant differences detected”.
